We go through 22 compounds from PubChem BioAssay (NCI).

Structures are written as SMILES. Values joined by “and” are separate entries in the source; they are usually repeats but may differ in a detail not shown here. Identical values can stand only once.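 Results reflect a 48-hour exposure of cells in 96-well plates to compound at five concentrations. GI50 marks 50% less growth. TGI marks complete inhibition of growth.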 A value given as a limit tells only on which side of the number the result lay.

The test system of the first experiment is TK-10 renal. Description: DTP human tumour cell line panel, 48 h.
Broadly, the GI50 is the concentration giving 50% growth inhibition. As a reminder, the TGI is the concentration at which net growth stops. A low value points to greater sensitivity of the cells. For `OCc1ccc(N2CCCC2c2ccccc2)cc1Cl` (centres undefined), the GI50 was 0.195 µM and the concentration for total growth inhibition (TGI) is 1.27 µM.
The compound `COC1C=COC2(C)Oc3c(C)c(O)c4c(c3C2=O)/C(=N/C2CCC(O)OC2C)C=C(NC(=O)/C(C)=C\C(=O)C2CC2C(O)C(C)C(O)C(C)C(OC(C)=O)C1C)C4=O` (centres undefined) yielded a total growth inhibition concentration (TGI) of 7.25 µM. That is a single-digit micromolar value.
For the compound `CC(=O)/C=C/c1cn(C(=O)OC(C)(C)C)c2ccc(Br)cc12`, the GI50 was 17.6 µM and the TGI amounted to 33.9 µM.
For `CCOc1ccccc1C(=O)N1CCN(c2cc(Cl)cc(Cl)c2)CC1`, the GI50 is 9.16 µM and the TGI amounted to 24 µM.
Turning to `NC(CSC1c2ccccc2-c2ccccc21)C(=O)O` (centres undefined), the TGI was more than 100 µM.
Same read-out and setting: the value for `COc1cc2c(cc1C1COc3cc4occc4cc3C1=O)OCO2` (centres undefined) was more than 100 µM.
For the compound `Cc1cc(S(=O)(=O)/N=C(/N)Nc2ccccc2O)c(SCc2ccccc2)cc1Cl`, the GI50 was 22.9 µM and the TGI came to 41.2 µM.
`O=C(NC1CCCCC1)NS(=O)(=O)c1ccc2c(c1)CCC2` registered a TGI of more than 100 µM.
In the case of `O=C1CCC(N2Cc3cc(CNC(=O)C(F)(F)c4ccc(Cl)cc4)ccc3C2=O)C(=O)N1` (centres undefined), the GI50 is more than 100 µM and the concentration for total growth inhibition (TGI) is more than 100 µM.
`O=C(O)CN1CCN(CC(=O)O)CC(=O)[O][Hg][O]C(=O)C1`: the GI50 was 16 µM and the total growth inhibition concentration (TGI) amounted to 29.5 µM.
Taken in the same sequence, the figures for `O=C1/C(=C/c2ccccc2[N+](=O)[O-])Cc2ccccc21` were 3.14 µM and 7.1 µM.
For `O=C(OCc1ccc2ccccc2n1)c1cn(C2CC2)c2cc(N3CCN(Cc4ccc5ccccc5n4)CC3)c(F)cc2c1=O`, in that order: 31.9 µM and more than 74.6 µM.
In turn, `O=C(O)c1ccc(C(=O)c2ccccc2)c(C(=O)O)c1` returned a TGI of more than 100 µM.
On to `Cc1ccc(/C=N\NC(=O)c2[nH]c3ccc(F)cc3c2-c2ccccc2)cc1`, for which the GI50 is 0.0412 µM and the TGI is more than 93.3 µM.

The test system of another experiment is M19-MEL melanoma. The experiment is described as follows: DTP human tumour cell line panel, 48 h.
Compound `CCC(=O)C12OC3OC(C)(C)OC3C1OC(C)(C)O2` (centres undefined) came in with a TGI of more than 100 µM.
In the case of `COc1cc(C(=O)C/C(CCC(=O)Nc2ccccc2[N+](=O)[O-])=N\NC(N)=O)ccc1O`, the total growth inhibition concentration (TGI) was more than 100 µM.
Still for that read-out and setting: with `COc1ccc(-c2cc(Cc3cccs3)c(=O)[nH]n2)cc1` the figure was more than 100 µM; with `COC(=O)C1(C)CCc2c(OC)ccc(OC)c2C1=O` (centres undefined), more than 100 µM.
Compound `COC(=O)C1CC2CC(=NNC(N)=O)CC2C1` (centres undefined) yielded a TGI of more than 100 µM.
As for `O=C(NC1CCCCC1)NS(=O)(=O)c1ccc2c(c1)CCC2`, the TGI was more than 100 µM.

For a further experiment, the system named is MALME-3M melanoma. Description: DTP human tumour cell line panel, 48 h.
As for `CCC(=O)C12OC3OC(C)(C)OC3C1OC(C)(C)O2` (centres undefined), the total growth inhibition concentration (TGI) is more than 100 µM.
Same read-out and setting: with `COc1cc(C(=O)C/C(CCC(=O)Nc2ccccc2[N+](=O)[O-])=N\NC(N)=O)ccc1O` the figure was more than 100 µM; with `COc1ccc(-c2cc(Cc3cccs3)c(=O)[nH]n2)cc1`, more than 100 µM.
Regarding `O=C1NC(=O)C(N2C(=O)c3ccccc3C2=O)CC1O` (centres undefined), the GI50 was more than 100 µM and the TGI is more than 100 µM.
In the case of `COC(=O)C1(C)CCc2c(OC)ccc(OC)c2C1=O` (centres undefined), the TGI is more than 100 µM.
The same measure, in the same setting: the value for `COC(=O)C1CC2CC(=NNC(N)=O)CC2C1` (centres undefined) was more than 100 µM.
For the compound `COc1ccc2c(c1)N(CCO)C1=C(C(=O)OC1)C2c1cccc(F)c1` (centres undefined), the 50% growth inhibitory concentration (GI50) is 0.391 µM and the TGI is more than 50 µM.
Regarding `C=CC(=O)Nc1cccc(Oc2nc(Nc3ccc(N4CCN(C)CC4)cc3)nc3ccsc23)c1`, the GI50 is 1.63 µM and 1.83 µM; the total growth inhibition concentration (TGI) was 3.14 µM and 3.66 µM.
Consider `OCc1ccc(N2CCCC2c2ccccc2)cc1Cl` (centres undefined), for which the GI50 was 9.73 µM and the TGI is 28.2 µM.
As to `COC1C=COC2(C)Oc3c(C)c(O)c4c(c3C2=O)/C(=N/C2CCC(O)OC2C)C=C(NC(=O)/C(C)=C\C(=O)C2CC2C(O)C(C)C(O)C(C)C(OC(C)=O)C1C)C4=O` (centres undefined), the concentration for total growth inhibition (TGI) worked out at 3.36 µM.
For `CC(=O)/C=C/c1cn(C(=O)OC(C)(C)C)c2ccc(Br)cc12`, the GI50 is 52.1 µM and the concentration for total growth inhibition (TGI) was more than 89.2 µM.
For `CCOc1ccccc1C(=O)N1CCN(c2cc(Cl)cc(Cl)c2)CC1`, the GI50 was 0.624 µM and the TGI came out at 22.9 µM.
Take `NC(CSC1c2ccccc2-c2ccccc21)C(=O)O` (centres undefined): the TGI was more than 100 µM.
The same measure, in the same setting: with `COc1cc2c(cc1C1COc3cc4occc4cc3C1=O)OCO2` (centres undefined) the figure was more than 100 µM.
As for `Cc1cc(S(=O)(=O)/N=C(/N)Nc2ccccc2O)c(SCc2ccccc2)cc1Cl`, the GI50 was 20.3 µM and the TGI worked out at 38.2 µM.
`O=C(NC1CCCCC1)NS(=O)(=O)c1ccc2c(c1)CCC2` showed a total growth inhibition concentration (TGI) of more than 100 µM.
On to `O=C1CCC(N2Cc3cc(CNC(=O)C(F)(F)c4ccc(Cl)cc4)ccc3C2=O)C(=O)N1` (centres undefined), for which the GI50 is 0.105 µM and the TGI was more than 27.9 µM.
Taken in the same sequence, the figures for `O=C(O)CN1CCN(CC(=O)O)CC(=O)[O][Hg][O]C(=O)C1` were 16.6 µM and 33 µM.
For the compound `O=C1/C(=C/c2ccccc2[N+](=O)[O-])Cc2ccccc21`, the GI50 is 2.28 µM and the total growth inhibition concentration (TGI) amounted to 5.71 µM.
For `O=C(OCc1ccc2ccccc2n1)c1cn(C2CC2)c2cc(N3CCN(Cc4ccc5ccccc5n4)CC3)c(F)cc2c1=O`, in that order: 33.2 µM and more than 84.2 µM.
In the case of `O=C(O)c1ccc(C(=O)c2ccccc2)c(C(=O)O)c1`, the total growth inhibition concentration (TGI) was more than 100 µM.
Turning to `Cc1ccc(/C=N\NC(=O)c2[nH]c3ccc(F)cc3c2-c2ccccc2)cc1`, the GI50 is 0.0572 µM and the TGI was more than 80.9 µM.

In another experiment the test system is DLD-1 colon. Description: DTP human tumour cell line panel, 48 h.
Consider `CCC(=O)C12OC3OC(C)(C)OC3C1OC(C)(C)O2` (centres undefined), for which the TGI was more than 100 µM.
The same measure, in the same setting: with `COC(=O)C1(C)CCc2c(OC)ccc(OC)c2C1=O` (centres undefined) the figure was more than 100 µM; with `COC(=O)C1CC2CC(=NNC(N)=O)CC2C1` (centres undefined), more than 100 µM.
The same measure, in the same setting: with `O=C(NC1CCCCC1)NS(=O)(=O)c1ccc2c(c1)CCC2` the figure was more than 100 µM.

The test system of another experiment is KM20L2 colon. The experiment is described as follows: DTP human tumour cell line panel, 48 h.
Take `COc1cc(C(=O)C/C(CCC(=O)Nc2ccccc2[N+](=O)[O-])=N\NC(N)=O)ccc1O`: the total growth inhibition concentration (TGI) was more than 100 µM.
In the case of `COc1ccc(-c2cc(Cc3cccs3)c(=O)[nH]n2)cc1`, the TGI was more than 100 µM.
